Measured values taken from patent publication US20220218667A1, “DUAL INHIBITORS OF SOLUBLE EPOXIDE HYDROLASE AND METHODS OF USE THEREOF” (OROX Biosciences, Inc., priority 2019, published 2022).
Like-named read-outs stand apart in the source and are kept apart here. Marks after values point to notes of the source that are not given here.

What was measured:
[1] = tested on: Human primary lung fibroblasts from IPF donors; assay: Fibroblast-to-Myofibroblast Transition (FMT) assay; type: cell-based; details: for IC50: Homo sapiens, Primary lung fibroblast, 1.25 ng/ml TGF-b1
Protocol: OX1 was evaluated in a primary cell-based Fibroblast-to-Myofibroblast Transition (FMT) assay; an in vitro assay relevant to idiopathic pulmonary fibrosis (TPF). Human primary lung fibroblasts from three (3) IPF donors (IPF06, IPF07, and IPF08) were triggered using 1.25 ng/ml TGF-b1 to induce FMT, one hour after application of compounds. OX1 and Nintedanib (approved drug for TPF) were applied in […] in semi-log dilutions with the top concentration at […] to construct eight (8)-point concentration response curve (CRC) in biological duplicates (ie. on two (2) different cell plates at on (1) occasion). SB525334 was used at […] in 0.1% DMSO as a positive validation control. The readouts at 72 hours were high content analysis (HCA) for aSMA expression and DAPI staining for nuclear count as measurement of potential cytotoxic effects.

[2] = tested on: C57B/L6 mice exposed to bleomycin; assay: Example 1: prophylactic treatment of mice exposed to bleomycin (IPF model); type: in vivo, mouse; details: OX1, OX3, Nintedanib 30 mg/kg QD, Pirfenidone 100 mg/kg BID; for body weight course over 21 days: bleomycin mice, oral gavage day -1 to 20; for neutrophil migration into BALF / number of lymphocytes in BALF / total cell (leukocyte) count in BALF / increased collagen (fibrosis) score, trichrome / mean Ashcroft score (lung histology) / mean score for mixed peribronchiolar/perivascular inflammation: day 21; for neutrophil migration into BALF / number of lymphocytes in BALF / total cell (leukocyte) count in BALF: oral; for increased collagen (fibrosis) score, trichrome / mean Ashcroft score (lung histology) / mean score for mixed peribronchiolar/perivascular inflammation: compared to vehicle (Group 2)
From the text: 4-(5-phenyl-3-{3-[3-(4-trifluoromethyl-phenyl)-ureido]-propyl}-pyrazol-1-yl)-benzenesulfonamide (PTUPB) [termed OX1] was compared to Pirfenidone, Nintedanib, and GSK225629415 [termed OX3] for treatment of IPF using an established model for IPF treating, which is prophylactic treatment of mice exposed to the chemotherapeutic agent bleomycin. […] Pirfenidone and Nintedanib are standard of care for the treatment of idiopathic pulmonary fibrosis and served as reference compounds in the experiment.
C57B/L6 mice were used in the experiments. When used, Bleomycin was administered intra-oropharyngeally, 1.5 U/kg, QD per established protocol. The test articles were dosed via oral gavage in 200 μL/day vehicle. The doses and formulations of test articles were selected based on the literature describing the lowest doses capable of eliciting pharmacological action.
Animals were dosed with the test articles (or vehicle) starting at day −1 to day 20. On day 1, daily doses of Bleomycin commenced in all but group 1 (negative control) which received the vehicle. On day 21, all animals were weighed and sacrificed. After lungs and bronco-alveolar lavage fluid (BALF) were harvested, they were prepared according to standard procedures for further analysis and histology. All animals were assessed twice a week for body weight and overall appearance. Efficacy endpoints measured in this study included lung weight, total leukocytes, and histology as determined by Mason's Trichrome stain and scored using a modified Ashcroft score.
The following parameters were measured in bronchoalveolar fluid (BALF): 1) soluble collagen and 2) differential leukocyte counts for different leukocyte populations.
After weighing and removal of BALF from the lungs, they were inflated and fixed using 10% neutral buffered formalin for histopathology analysis. Fifty-four formalin-fixed lung samples from mice were submitted to HistoTox Labs and were processed routinely. Two slides from each block were sectioned and stained with hematoxylin and eosin (H&E) or Masson's trichrome. Glass slides were evaluated with light microscopy by a board-certified veterinary pathologist. Lung sections were scored according to the modified Ashcroft scale.

[3] = tested on: C57BL/6 mice, bleomycin-induced fibrotic lung injury; assay: Example 2: therapeutic treatment in bleomycin-induced idiopathic pulmonary fibrosis mouse model; type: in vivo; details: OX1 60 mg/kg, Pirfenidone 100 mg/kg
From the text: The purpose of this study is to induce fibrotic lung injury in mice via a single administration of a glycopeptide antibiotic, bleomycin, in order to evaluate the efficacy of dual sEH and COX-2 inhibitor OX-1 in treating and reducing the symptoms associated with idiopathic pulmonary fibrosis. Pirfenidone, standard of care for the treatment of idiopathic pulmonary fibrosis, was used as a reference compound.
Male C57BL/6 mice from Charles River Laboratories aging of 7-8 weeks and weighing around 18-22 g at the time of their enrollment were used in the study.
Doses of OX1 at 60 mg/kg, Pirfenidone at 100 mg/kg, and the disease inducer Bleomycin at 1.5 mg/kg were used. A dosing rate of 10 mL/kg (approximately 0.2 mL/mouse according to their body weight) of OX1 was administered orally once daily to the mice. The mice received OX1 at 60 mg/kg once daily. A dosing rate of 10 mL/kg (approximately 0.2 mL/mouse according to their body weight) of Pirfenidone solution was administered once daily to the mice of the groups receiving Pirfenidone orally at the dose of 100 mg/kg once daily. A single intratracheal instillation of approximately 50 μL (1.5 mg/kg with a dosing rate of 2.5 mL/kg in sterile 0.9% saline) of bleomycin solution was administered to all mice except the sham group on day 0. Animals in the Sham group received one intratracheal instillation of approximately 50 μL of 0.9% saline solution on Day 0 and returned to their respective cages.
Treatment with the vehicle or test articles were initiated and administered starting on day 7 to day 21 as scheduled and described in Table 1 above. All test articles, reference compound and vehicle were administered to animals orally once daily. Food and water were given ad libitum. Daily observations of the behavioral and general health status of the animals were done. Daily body weight was also measured.
Prior to physiological assessment, all mice were introduced to the plethysmograph chamber environment. After the acclimatization period, the functional respiratory parameters were assessed by the whole-body plethysmograph on Day 0 (before bleomycin instillation), 7, 14 and 21 post-bleomycin instillation. Each measurement was performed with a mouse placed alone in an unrestrained whole-body plethysmography chamber (Buxco Electronics Inc.) to measure respiratory functions. The functional respiratory parameters analyzed included; the respiratory rate, the PenH ([…]) and the inspiratory/expiratory time measurements.
On the surgery day (Day 21), the mice were anesthetized, instrumented and arterial blood oxygen saturation (SpO2) was recorded. Blood oxygen saturation was read off of the pulse oximeter (STARR Life Sciences MouseOx Plus system, Oakmont, Pa.) with the probe attached to the right thigh of the animal. The saturation values were measured in percentage (%). At the moment of the sacrifice, the mouse thoracic cavity was open to expose the lungs and all mice were euthanatized by exsanguination. The trachea was then connected to the cannula of a perfusion system. The left lung was clamped while 1.5 mL of cold PBS solution (3×500 μL) was injected by the trachea to perform a bronchoalveolar lavage fluid (BALF) on the right lobe of the lungs and was collected on ice for further analysis. The total cells count with cells differential, the cytokine levels including TNF-α, TGF-β, IL-4, IL-5 and IL-17a, the total protein content as well as the soluble collagen were assessed in the BALF samples. Once collected, 300 μL of the BALF was transferred in an EDTA tube, kept at 2-4° C. and shipped to Biovet Inc. for the total cells count with cells differential analysis. The remaining BALF sample was centrifuged at 1200 rpm for 10 minutes at 4° C. to remove cells. The supernatant was aliquots and frozen at−80° C. until analysis was performed. […]

[4] = lung histopathology day 21, mean
[5] = mean, BLM mice, oral once daily day 7 to 21

COC(=O)c1ccc2c(c1)NC(=O)/C2=C(\Nc1ccc(N(C)C(=O)CN2CCN(C)CC2)cc1)c1ccccc1 [Nintedanib]
Loss of Nuclei ([1]; DAPI staining, nuclear count as measure of potential cytotoxic effects, 72 hours): Yes | IC50 ([1]; donor IPF06, readout at 72 hours, read-out: αSMA inhibition IC50 (μM), Patient Identifier IPF06): 0.6 µM | IC50 ([1]; donor IPF07, readout at 72 hours, read-out: αSMA inhibition IC50 (μM), Patient Identifier IPF07): 0.6 µM | IC50 ([1]; donor IPF08, readout at 72 hours, read-out: αSMA inhibition IC50 (μM), Patient Identifier IPF08): 0.4 µM | IC50 ([1]; mean of three IPF donors, 72 hours, read-out: αSMA inhibition IC50 (μM), Mean): 0.5 µM | body weight course over 21 days [2]: sustained weight loss | neutrophil migration into BALF [2]: effective | number of lymphocytes in BALF [2]: trend increasingly lower | total cell (leukocyte) count in BALF [2]: largest reduction | increased collagen (fibrosis) score, trichrome [2]: the highest | mean Ashcroft score (lung histology) [2]: the highest | mean score for mixed peribronchiolar/perivascular inflammation [2]: similar

Cc1ccc(=O)n(-c2ccccc2)c1 [Pirfenidone]
Eosinophils (cells) ([3]; BALF day 21, mean): 874 cells | Lymphocytes (cells) ([3]; BALF day 21, mean): 174517 cells | Macrophages (cells) ([3]; BALF day 21, mean): 204110 cells | Neutrophils (cells) ([3]; BALF day 21, mean): 6999 cells | Soluble collagen ([3]; BALF day 21, mean): 197.82 µg | Total BALF cytokines (pg) IL-4 ([3]; BALF day 21, mean): 0.00 pg | Total BALF cytokines (pg) IL-5 ([3]; BALF day 21, mean): 2.17 pg | Total BALF cytokines (pg) IL-6 ([3]; BALF day 21, mean): 11.98 pg | Total BALF cytokines (pg) IL-17 ([3]; BALF day 21, mean): 0.00 pg | Total BALF cytokines (pg) IP-10 ([3]; BALF day 21, mean): 15.24 pg | Total BALF cytokines (pg) LIF ([3]; BALF day 21, mean): 24.67 pg | Total BALF cytokines (pg) MIG ([3]; BALF day 21, mean): 8.58 pg | Total BALF cytokines (pg) TNFa ([3]; BALF day 21, mean): 0.00 pg | Total TGFβ ([3]; BALF day 21, mean): 472.64 pg | Total cell counts (cells) ([3]; BALF day 21, mean): 386500 cells | Percent Survival (%) ([3]; BLM mice, oral once daily day 7 to 21): 91.70% | Ashcroft score [3, 4]: 3.5 †† | Collagen content (%) [3, 4]: 5.91% | Pulmonary foci (%) [3, 4]: 7.46% | Body weight changes from day 0 (%) [3, 5]: 2.47% | Body weight changes from day 7 (%) [3, 5]: 6.49% | body weight course over 21 days [2]: sustained weight loss | neutrophil migration into BALF [2]: did not exhibit any effects | number of lymphocytes in BALF [2]: trend increasingly lower | total cell (leukocyte) count in BALF [2]: did not demonstrate the same level of reduction | increased collagen (fibrosis) score, trichrome [2]: slightly lower | mean Ashcroft score (lung histology) [2]: slightly lower | mean score for mixed peribronchiolar/perivascular inflammation [2]: similar
